Assay results taken from the NIST ThermoML archive (doi:10.1021/acs.jced.9b00187).

Assays:
[1] = xn = mol fraction of the nth substance listed; details: Liquid, Moving piston method
[2] = Liquid; for viscosity: Moving piston method; for vapor or sublimation pressure: Closed cell (Static) method

CCCCCCCCCCCC [dodecane] + O=C=O
[1]
Details | viscosity [mPa·s]
283.7 K, 4630 kPa, x2 = 0.8 | 0.353
283.97 K, 4610 kPa, x2 = 0.8 | 0.362
284.33 K, 3710 kPa, x2 = 0.5999 | 0.578
284.41 K, 2630 kPa, x2 = 0.401 | 0.96
284.44 K, 2530 kPa, x2 = 0.401 | 0.972
284.6 K, 1460 kPa, x2 = 0.2009 | 1.227
305.43 K, 5410 kPa, x2 = 0.5999 | 0.487
305.44 K, 5360 kPa, x2 = 0.5999 | 0.498
305.64 K, 1770 kPa, x2 = 0.2009 | 0.865
305.65 K, 3610 kPa, x2 = 0.401 | 0.667
305.69 K, 1730 kPa, x2 = 0.2009 | 0.86
305.82 K, 6880 kPa, x2 = 0.8 | 0.272
328.83 K, 10780 kPa, x2 = 0.8 | 0.236
328.86 K, 7350 kPa, x2 = 0.5999 | 0.373
328.99 K, 4470 kPa, x2 = 0.401 | 0.493
329.3 K, 2050 kPa, x2 = 0.2009 | 0.585
350.19 K, 5510 kPa, x2 = 0.401 | 0.397
350.49 K, 14270 kPa, x2 = 0.8 | 0.208
350.95 K, 9320 kPa, x2 = 0.5999 | 0.305
351.33 K, 2490 kPa, x2 = 0.2009 | 0.437

CCCCCCCCCCCC [dodecane]
[2]
Details | viscosity [mPa·s]
284.6 K, 670 kPa | 1.75
284.6 K, 2190 kPa | 1.78
284.7 K, 2710 kPa | 1.79
284.7 K, 4240 kPa | 1.82
294 K, 8310 kPa | 1.63
322.3 K, 4240 kPa | 0.98
350.5 K, 690 kPa | 0.66
350.5 K, 4250 kPa | 0.68
350.5 K, 8310 kPa | 0.72
353.1 K, 8320 kPa | 0.69

O=C=O [carbon dioxide]
[2]
Details | vapor or sublimation pressure [kPa]
282.15 K | 4392
287.11 K | 4961
291.84 K | 5555
296.64 K | 6214
301.38 K | 6928
